Experimental data taken from patent publication US10597388B2, “Pyridazinone herbicides” (FMC CORPORATION, priority 2014, dated 2020).

Legend:
Format in all cases: in vivo
[1] = system: buckwheat, wild (wild buckwheat, Polygonum convolvulus); test: Test D controlled growth environment herbicide test, pre- and postemergence
Excerpt: Seeds of plant species selected from bluegrass (annual bluegrass, Poa annua), blackgrass (Alopecurus myosuroides), Canada thistle (Cirsium arvense), canarygrass (Phalaris minor), chickweed (common chickweed, Stellaria media), geranium, cutleaf (cutleaf geranium, Geranium dissectum), galium (catchweed bedstraw, Galium aparine), bromegrass, downy (downy bromegrass, Bromus tectorum), field poppy (Papaver rhoeas), field violet (Viola arvensis), foxtail, green (green foxtail, Setaria viridis), deadnettle (henbit deadnettle, Lamium amplexicaule), ryegrass, Italian (Italian ryegrass, Lolium multiflorum), kochia (Kochia scoparia), lambsquarters (Chenopodium album), oilseed rape (Brassica napus), pigweed (Amaranthus retroflexus), chamomile (scentless chamomile, Matricaria inodora), Russian thistle (Salsola kali), speedwell (bird's-eye speedwell, Veronica persica), barley, spring (spring barley, Hordeum vulgare), wheat, spring (spring wheat, Triticum aestivum), buckwheat, wild (wild buckwheat, Polygonum convolvulus), mustard, wild (wild mustard, Sinapis arvensis), oat, wild (wild oat, Avena fatua), radish, wild (wild radish, Raphanus raphanistrum), windgrass (Apera spica-venti), barley, winter (winter barley, Hordeum vulgare), and wheat, winter (winter wheat, Triticum aestivum) were planted into a silt loam soil and treated preemergence with test chemicals formulated in a non-phytotoxic solvent mixture which included a surfactant.
At the same time, these species were planted in pots containing Redi-Earth® planting medium (Scotts Company, 14111 Scottslawn Road, Marysville, Ohio 43041) comprising spaghnum peat moss, vermiculite, wetting agent and starter nutrients and treated with postemergence applications of the test chemicals formulated in the same manner. Plants ranged in height from 2 to 18 cm (1- to 4-leaf stage). Treated plants and controls were maintained in a controlled growth environment for 14 to 21 d after which time all species were compared to controls and visually evaluated. Plant response ratings, summarized in Table D, are based on a scale of 0 to 100 where 0 is no effect and 100 is complete control. A dash (-) response means no test result.

[2] = system: nightshade (eastern black nightshade, Solanum ptycanthum); test: Test E greenhouse herbicide test, pre- and postemergence; settings: Preemergence
Procedure, shortened: (§1)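 For each species, sown seed in silt loam and young plants (2 to 18 cm) in a peat/vermiculite medium were each treated with compound dissolved in surfactant-containing, non-phytotoxic solvent. After 14 to 21 d under greenhouse conditions, effects were visually rated, 100 meaning complete control.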

[3] = system: arrowleaf sida (Sida rhombifolia); test: as above
Procedure, shortened: as §1

[4] = system: corn (Zea mays); test: as above
Procedure, shortened: as §1

[5] = system: field bindweed (Convolvulus arvensis); test: as above
Procedure, shortened: as §1

[6] = system: momingglory (Ipomoea coccinea); test: as above; settings: Preemergence
Procedure, shortened: as §1

[7] = system: pigweed, palmer (palmer pigweed, Amaranthus palmeri); test: as above
Procedure, shortened: as §1

[8] = system: soybean (Glycine max); test: as above
Procedure, shortened: as §1

[9] = system: surinam grass (Brachiaria decumbens); test: as above; settings: Preemergence
Procedure, shortened: as §1

[10] = system: horseweed (Conyza canadensis); test: as above; settings: Preemergence
Procedure, shortened: as §1

[11] = system: goosegrass (Eleusine indica); test: as above; settings: Preemergence
Procedure, shortened: as §1

[12] = 62 g ai/ha, scale 0 to 100 (0 no effect, 100 complete control)
[13] = 125 g ai/ha, scale 0 to 100 (0 no effect, 100 complete control)
[14] = 31 g ai/ha, scale 0 to 100, 0 no effect, 100 complete control
[15] = 250 g ai/ha, visual, scale 0 no effect to 100 complete control
[16] = 62 g ai/ha, Postemergence, scale 0 to 100 (0 no effect, 100 complete control)
[17] = 62 g ai/ha, Preemergence, scale 0 to 100 (0 no effect, 100 complete control)
[18] = 125 g ai/ha, Postemergence, scale 0 to 100 (0 no effect, 100 complete control)
[19] = 250 g ai/ha, Postemergence, scale 0 to 100 (0 no effect, 100 complete control)
[20] = Postemergence, 31 g ai/ha, visual, scale 0 no effect to 100 complete control
[21] = Preemergence, 31 g ai/ha, scale 0 to 100, 0 no effect, 100 complete control
[22] = Preemergence, 125 g ai/ha, visual, scale 0 no effect to 100 complete control
[23] = Preemergence, 250 g ai/ha, visual, scale 0 no effect to 100 complete control
[24] = 125 g ai/ha, Preemergence, scale 0 to 100 (0 no effect, 100 complete control)
[25] = 125 g ai/ha, visual, scale 0 no effect to 100 complete control

CC(=O)Oc1c(C)nn(C)c(=O)c1-c1c(C)sc2ccc(C)cc12 [Compound 25]
Buckwheat, Wild plant response rating ([1]; Postemergence, 31 g ai/ha, scale 0 to 100 (0 no effect, 100 complete control)): 80 | Plant response rating, Buckwheat, Wild ([1]; Postemergence, 125 g ai/ha, visual rating on scale 0 (no effect) to 100 (complete control), 14 to 21 d): 100 | Plant response rating, Buckwheat, Wild ([1]; Postemergence, 250 g ai/ha, scale 0 to 100 (0 no effect, 100 complete control)): 100 | Plant response rating (scale of 0 to 100), Buckwheat, Wild ([1]; Preemergence, 31 g ai/ha): 0 | Plant response rating, Buckwheat, Wild ([1]; Preemergence, 62 g ai/ha, scale 0 to 100 (0 no effect, 100 complete control)): 0 | Plant response rating, Buckwheat, Wild ([1]; Preemergence, 125 g ai/ha, scale 0 to 100 (0 no effect, 100 complete control)): 20 | Plant response rating, Buckwheat, Wild ([1]; Preemergence, 250 g ai/ha, scale 0 to 100 (0 no effect, 100 complete control)): 25 | Plant response rating, Buckwheat, Wild ([1]; postemergence, 62 g ai/ha, scale 0 to 100, 0 no effect, 100 complete control): 100 | Plant response rating, Nightshade [2, 12]: 80 | Plant response rating, Nightshade [2, 13]: 95 | Plant response rating, Nightshade [2, 14]: 90 | Plant response rating, Nightshade [2, 15]: 98 | Plant response rating, Arrowleaf Sida [3, 16]: 75 | Plant response rating, Arrowleaf Sida [3, 17]: 80 | Plant response rating, Arrowleaf Sida [3, 18]: 80 | Plant response rating, Arrowleaf Sida [3, 19]: 85 | Plant response rating, Arrowleaf Sida [3, 20]: 60 | Plant response rating, Arrowleaf Sida [3, 21]: 40 | Plant response rating, Arrowleaf Sida [3, 22]: 90 | Plant response rating, Arrowleaf Sida [3, 23]: 95 | Plant response rating, Corn [4, 16]: 20 | Plant response rating, Corn [4, 17]: 0 | Plant response rating, Corn [4, 18]: 20 | Plant response rating, Corn [4, 19]: 15 | Plant response rating, Corn [4, 20]: 10 | Plant response rating, Corn [4, 21]: 0 | Plant response rating, Corn [4, 22]: 0 | Plant response rating, Corn [4, 23]: 0 | Plant response rating, Field Bindweed [5, 16]: 95 | Plant response rating, Field Bindweed [5, 17]: 98 | Plant response rating, Field Bindweed [5, 18]: 95 | Plant response rating, Field Bindweed [5, 19]: 90 | Plant response rating, Field Bindweed [5, 20]: 90 | Plant response rating, Field Bindweed [5, 21]: 80 | Plant response rating, Field Bindweed [5, 22]: 60 | Plant response rating, Field Bindweed [5, 23]: 98 | Plant response rating, Morningglory [6, 12]: 70 | Plant response rating, Morningglory [6, 13]: 95 | Plant response rating, Morningglory [6, 14]: 65 | Plant response rating, Morningglory [6, 15]: 100 | Plant response rating, Pigweed, Palmer [7, 16]: 80 | Plant response rating, Pigweed, Palmer [7, 17]: 90 | Plant response rating, Pigweed, Palmer [7, 18]: 100 | Plant response rating, Pigweed, Palmer [7, 24]: 100 | Plant response rating, Pigweed, Palmer [7, 19]: 85 | Plant response rating, Pigweed, Palmer [7, 20]: 75 | Plant response rating, Pigweed, Palmer [7, 21]: 65 | Plant response rating, Pigweed, Palmer [7, 23]: 100 | Plant response rating, Soybean [8, 16]: 20 | Plant response rating, Soybean [8, 18]: 30 | Plant response rating, Soybean [8, 24]: 0 | Plant response rating, Soybean [8, 19]: 75 | Plant response rating, Soybean [8, 20]: 0 | Plant response rating, Soybean [8, 21]: 0 | Plant response rating, Soybean [8, 23]: 70 | Plant response rating, Surinam Grass [9, 12]: 80 | Plant response rating, Surinam Grass [9, 13]: 90 | Plant response rating, Surinam Grass [9, 14]: 65 | Plant response rating, Surinam Grass [9, 15]: 95 | Plant response rating, Horseweed [10, 12]: 100 | Plant response rating, Horseweed [10, 14]: 100 | Plant response rating, Horseweed [10, 25]: 100 | Plant response rating, Horseweed [10, 15]: 100 | Plant response rating, Goosegrass [11, 12]: 65 | Plant response rating, Goosegrass [11, 14]: 20 | Plant response rating, Goosegrass [11, 25]: 80 | Plant response rating, Goosegrass [11, 15]: 90
